Results: BigSolDB 2.1

O=C1CCC(=O)CC1
solubility (mole fraction)
Conditions	in acetone	in acetonitrile	in cyclohexane	in ethanol	in ethyl acetate	in isopropanol	in methanol	in methyl acetate	in n-butanol	in n-propanol
278.15 K	0.177	0.241	–	0.0215	0.093	0.018	0.112	0.156	0.0113	0.0096
283.15 K	0.21	0.273	0.000676	0.0301	0.117	0.0274	0.141	0.188	0.0181	0.0162
288.15 K	0.248	0.311	0.000868	0.0479	0.146	0.0414	0.174	0.227	0.0293	0.0253
293.15 K	0.29	0.35	0.00111	0.0777	0.179	0.0681	0.221	0.27	0.0436	0.0409
298.15 K	0.338	0.391	0.00141	0.121	0.223	0.107	0.266	0.321	0.0654	0.0638
303.15 K	0.391	0.434	0.00182	0.183	0.271	0.165	0.324	0.377	0.0954	0.0996
308.15 K	0.454	0.481	0.00234	0.265	0.332	0.254	0.393	0.441	0.145	0.157
313.15 K	0.52	0.533	0.00293	0.375	0.404	0.36	0.461	0.515	0.222	0.24
